The source of these data is patent US20030144350A1, “Fat accumulation-modulation compounds” (AdipoGenix, Inc., priority 2001, published 2003).

Read-outs that look alike come from different tables or passages of the source.

The conditions of data set [1]: mice, single injections; cited from earlier work.
Data set [2] concerns primary human subcutaneous preadipocytes. Conditions: for % Toxicity: Alamar Blue. How it is done: Up to five cell strains of banked primary human subcutaneous preadipocytes were used for high throughput screening. Cells were grown in tissue culture flasks, maintained under standard incubation conditions (5% carbon dioxide, 37° C.) and split evenly when 100% confluent into two new tissue culture flasks (one cell division) in growth medium. Cells were split up to four times to produce enough cells for screening.
Two to five days before the experiment, adhered cells were detached with trypsin/EDTA, combined and seeded into 384-well plates at 100% confluency. On day zero, cells were incubated with […] to induce differentiation of preadipocytes into adipocytes (characterized by cell rounding, formation of triglyceride droplets, etc.). Growth medium was changed every three days. On day six, cells were incubated in triplicate with test compounds (supplied by ComGenex International, Inc., South San Francisco, USA) at various concentrations.
Compounds were first diluted in a phosphate-buffered saline solution with 0.1% fatty-acid free bovine serum albumin (BSA, to aid compound suspension), and then added to cells. Negative control cells were treated with DMSO, the solvent used for initially dissolving compounds, at 0.1% final concentration.
Subsequent determination of compound toxicity was measured by incubating cells with Alamar Blue (an indicator of cellular viability, purchased from BioSource International Inc., Camarillo, Calif., USA) for three to four hours before measuring fluorescence of the reduced compound. Toxicity of compounds was determined by the following calculation:
% Toxicity=100-(sample fluorescence/negative control fluorescence*100)

For data set [3] the test system is unchanged. Briefly: High throughput screening of fluorescent fatty acid (FA*) accumulation in differentiating human preadipocytes. The format is cell-based. Here is the method:
Growth medium was changed every three days. […] Cell plates were prewashed with FAB+, and then FA* was added. Cells were incubated with FA* for four hours, and then postwashed with FAB+ to remove unincorporated FA*. Cellular fluorescence of triglyceride droplets that have incorporated FA* was measured on a microplate reader. Efficacy of compounds on inhibiting FA* accumulation was determined by the following calculation: […]

For the compound `C=C1C(=O)OC(CCCCCCCC)C1C(=O)O` (stereo not drawn) [Compound C75], in data set [1], the “food eaten less than untreated littermates” value was 90%.
The compound `N#CC(C#N)=NNc1ccc(OC(F)(F)F)cc1` [FCCP, Carbonyl cyanide p-(trifluoromethoxy)phenylhydrazone] yielded a toxicity in data set [2] (10 μM) of 100%. Besides, the “% Toxicity” value is reported as −1% in data set [2] (FCCP 0.3 uM), −4% in data set [2] (FCCP 1 uM) and 5% in data set [2] (FCCP 3 uM). For the same compound, the efficacy in data set [3] (10 μM) is reported as 100%. The Emax at 0.3 µM in data set [3] (Homo sapiens, FCCP 0.3 uM, inhibition of FA* accumulation, read-out: % Efficacy) worked out at 42%. Moreover, the Emax at 1 µM in data set [3] (Homo sapiens, FCCP 1 uM, inhibition of FA* accumulation, read-out: % Efficacy) was 79%. Besides, the Emax at 3 µM in data set [3] (Homo sapiens, FCCP 3 uM, inhibition of FA* accumulation, read-out: % Efficacy) was 90%.
